Assay results taken from patent publication US10092620B2, “Uses of cyclic peptides for treating and preventing atherosclerosis” (THE SCRIPPS RESEARCH INSTITUTE, priority 2013, dated 2018).
Non-standard residues stand in square brackets, D forms with d. Residues, ends and D or L forms follow the SMILES beside them.

How the values were obtained:
HDL in human plasma = experiment: pre-beta HDL ELISA assay: remodeling HDL in human plasma in vitro; type: biochemical; details: pre-beta HDL ELISA
Method: First, various cyclic peptides, including the majority of compounds shown in FIG. 2, were assessed for activities for remodeling HDL in human plasma in vitro. Unlike western blot which was used to generate data shown in FIG. 2, here a pre-beta HDL ELISA assay was used to measure pre-beta HDL levels. Results from the assay are shown in Table 1, which lists the peptides in the order of their activities in remodeling HDL.

[1] = mouse pharmacokinetics, i.p., LC-MS SIM; type: in vivo; details: male, BALB/cByJ, plasma, ip, BALB/c mice, i.p. 16 mg/kg
Method: Pharmacokinetics: The TSRI Institutional Animal Care and Use Committee approved all experimental protocols involving live animals. Male mice (20 g) on a BALB/cByJ background were obtained from the Rodent Breeding Colony of the Department of Animal Resources at TSRI, and were maintained on a chow diet. The cyclic peptide c[wLwReQeR], 1, was dissolved in PBS containing 1% sucrose, and sterile filtered through a 0.22-μm syringe filter before injection. Mice were fasted beginning 12 h before dosing, and continued the fast until after the 8-h time point blood draw was completed. Groups of three mice received a 16-mg/kg dose of the cyclic peptide via intraperitoneal injection (0.3 mL). Blood was drawn (30-60 μL) from the retro-orbital sinus into a heparinized capillary tube before dosing (0 min) and at different intervals from 30 min to 8 h after dosing. Plasma was isolated immediately from the whole blood by centrifugation at 5000 rpm for 10 min at 4° C. […] The resultant supernatant was analyzed by using LC-MS SIM as described below.
LC-MS SIM quantitation of peptide concentration: Cyclic peptide concentrations were quantified by using reverse-phase HPLC coupled with mass spectrometry. […] For quantitative calibration, standard curves were established using mouse EDTA-anticoagulated plasma spiked with various concentrations of the peptide. […]

LDLr-null mice = experiment: in vivo efficacy study: plasma total cholesterol in high-fat-fed LDLr-null mice; parameters: species or system mouse
Excerpt: Encouraged by the above findings, we carried out a 2-week pilot study to determine the effect of 1 on plasma total cholesterol levels. As an animal model, we employed the LDLr-null mouse, which has a human-like lipoprotein profile and is a leading animal model for studying hypercholesterolemia and atherogenesis. Considering that the abiotic nature of cyclic D,L-α-peptides renders them highly resistant to proteolysis, we chose to conduct this pilot in vivo efficacy study via the more convenient oral route of administration. Thus, the cyclic D,L-α-peptide was administered orally in the drinking water for two weeks (each mouse drank ˜0.5 mg peptide per day, or ˜25 mg/kg/day) to mice maintained on a high-fat diet.
In vivo efficacy study: LDL receptor-null (LDLr^−/−) mice on a C57BL/6J background were initially purchased from Jackson Laboratories (Bar Harbor, Me.) and were bred in house. The mice were weaned at 4 weeks of age and were fed ad libitum a standard chow diet (Harlan Teklad 7019) until they were 10-weeks old, when they were switched to a high-fat Western diet (WD) containing 15.8% (wt/wt) fat, 1.25% (wt/wt) cholesterol, and no cholate (Harlan Teklad 94059). At the time that the WD was started, the test cyclic peptide was added to the drinking water at a high dose of 180 μM (200 μg/mL) or a low dose of 18 μM (20 μg/mL) and the mice (female, n=8 per dosing group) were continued on WD for 10 weeks. The lyophilized peptide was easily dissolved in PBS (pH 7.4) containing 1% sucrose, resulting in a clear solution. The drinking water solution was replaced with fresh solution every day. A control group of eight mice (female, n=8) were fed WD with vehicle (PBS with 1% sucrose) drinking water. The mice consumed approximately 2.5 mL of water per day per mouse, and there was no significant difference in water or food consumption between groups.
Effect of cyclic peptides on plasma total cholesterol: The mice were bled after two weeks of treatment and at the time of harvest (10 weeks). The blood (200 μL) was collected after an overnight fast (14-16 h) by retro-orbital puncture into a heparinized capillary tube at two weeks, or by cardiac puncture into EDTA anti-coagulant coated tubes at the time of harvest (10 weeks). Plasma was separated from whole blood immediately by centrifugation of the blood samples at 5000 rpm for 10 min at 4° C., and was then stored at −80° C. Plasma total cholesterol (TC) was measured using an enzymatic colorimetric method kit (Amplex® red cholesterol assay kit, No. A12216, Life Technologies) according to the manufacturer's instructions.
In addition, several peptides were administered orally to mice at a 35 mg/kg dose (unless otherwise noted) in the drinking water for two weeks. The female LDLr-null mice maintained on a high-fat diet were provided with peptide-treated 1% sucrose/PBS or 1% sucrose/PBS alone as the drinking water ad libitum. Cholesterol levels were then determined. The data are shown in FIG. 7 as a scatter plot along with mean±SD. p values were determined by the one-way ANOVA test with a post hoc Tukey-Kramer test.

[2] = plasma liver enzyme activities (ALT, AST); type: in vivo, mouse; details: oral ~25 mg/kg/day, 10 weeks, LDLr-null mice
Method: Plasma liver enzyme activities: At the time of harvest (10 week), blood (˜0.5 mL) was collected after an overnight fast (14-16 h) by cardiac puncture into EDTA anti-coagulant coated tubes, and centrifuged at 4° C. for 10 min×5000 rpm. Plasma samples were stored at −80° C. until analysis. Plasma alanine aminotransferase (ALT) and aspartate aminotransferase (AST) concentrations were measured using Infinity ALT (GPT) and AST (GOT) liquid stable reagents, respectively, which is a colorimetric kinetic assay (Thermo Scientific). Assays were performed in accordance to the manufacturer's recommendations, adjusting the reagent volumes (20 μL plasma+200 μL reagent, 0.69-cm light pathlength of the solution in the well) for analysis of samples in 96-well flat bottom microplate format.

CC(C)C[C@@H]1NC(=O)[C@@H](Cc2c[nH]c3ccccc23)NC(=O)[C@H](CCCNC(=N)N)NC(=O)[C@@H](CCC(=O)O)NC(=O)[C@H](CCC(N)=O)NC(=O)[C@@H](CCC(=O)O)NC(=O)[C@H](CCCNC(=N)N)NC(=O)[C@@H](Cc2c[nH]c3ccccc23)NC1=O [SEQ ID NO:1, c[wLwReQeR]] (cyclo([dW]L[dW]R[dE]Q[dE]R))
Pre-beta HDL generated (normalized level) (HDL in human plasma): 0.88 | half-life [1]: ~2 h | reduction in plasma cholesterol levels compared to control animals (LDLr-null mice; 10-fold lower dose ~2.5 mg/kg/day in drinking water, after two weeks): 17% | reduction in total plasma cholesterol compared to control animals (LDLr-null mice; oral in drinking water ~25 mg/kg/day, 2 weeks, female LDLr-null mice, high-fat diet): 55% | reduction of total plasma cholesterol levels (overview statement) (LDLr-null mice; oral in drinking water, LDLr-null mice, high-fat diet for 10 weeks, vs. controls): up to 55% | total plasma cholesterol level lower than in control animals (LDLr-null mice; oral ~25 mg/kg/day, 10 weeks, LDLr-null mice, high-fat diet): 30% | plasma cholesterol vs control (in words) (LDLr-null mice; ~2.5 mg/kg/day in drinking water, completion of 10-week study): no significant differences | liver enzyme ALT, difference between groups [2]: No differences | liver enzyme AST, difference between groups [2]: No differences
